In test [1] the target is G-protein coupled receptor 84 (Homo sapiens, UniProt Q9NQS5). Kind of test: Antagonist activity at human GPR84 expressed in HEK293 cells co-expressing Galpha16 assessed as inhibition of 6-OAU induced calcium response incubated for 10 mins by calcium mobilization assay. Format: functional, cell-based.
For test [2], the system named is Mus musculus. Kind of test: Protection against C57BL/6 mouse model of LPS-induced acute […] injury assessed as reduction in CD45positive immune cells in BALF at 100 mg/kg, po pre-treated with compound for 30 mins followed by LPS-stimulation for 12 hrs and measured 24 hrs post LPS stimulation by flow cytometric analysis. Format: functional, organism-based. As to conditions: time 24.5 hrs. Background: In flow cytometry, cells or beads pass a laser one at a time.

For test [3], the system named is Mus musculus. As to the kind of experiment: Protection against C57BL/6 mouse model of LPS-induced acute […] injury assessed as amelioration of pulmonary congestion at 100 mg/kg, po pre-treated with compound for 30 mins followed by LPS-stimulation for 12 hrs and measured 24 hrs post LPS stimulation by H&E staining based analysis. Particulars: time 24.5 hrs. Format: functional, organism-based.

Test [4] concerns Mus musculus. Kind of test: Protection against C57BL/6 mouse model of LPS-induced acute […] injury assessed as amelioration of thickening of alveolar wall at 100 mg/kg, po pre-treated with compound for 30 mins followed by LPS-stimulation for 12 hrs and measured 24 hrs post LPS stimulation by H&E staining based analysis. As to conditions: time 24.5 hrs. Format: functional, organism-based.

The test system of test [5] is Mus musculus. As to the kind of experiment: Protection against C57BL/6 mouse model of LPS-induced acute […] injury assessed as amelioration of […] edema at 100 mg/kg, po pre-treated with compound for 30 mins followed by LPS-stimulation for 12 hrs and measured 24 hrs post LPS stimulation by H&E staining based analysis. Format: functional, organism-based. As to conditions: time 24.5 hrs.

Test [6] concerns Mus musculus. As to the kind of experiment: Protection against C57BL/6 mouse model of LPS-induced acute […] injury assessed as reduction in CD45positive CD11bpositive myeloid cells in BALF at 100 mg/kg, po pre-treated with compound for 30 mins followed by LPS-stimulation for 12 hrs and measured 24 hrs post LPS stimulation by flow cytometric analysis. It is filed as functional, organism-based. Particulars: time 24.5 hrs.

Test [7] deals with Mus musculus. Kind of test: Protection against C57BL/6 mouse model of LPS-induced acute […] injury assessed as reduction in total cells in BALF at 100 mg/kg, po pre-treated with compound for 30 mins followed by LPS-stimulation for 12 hrs and measured 24 hrs post LPS stimulation by flow cytometric analysis. As to conditions: time 24.5 hrs. It is filed as functional, organism-based.

Test [8] deals with Mus musculus. As to the kind of experiment: Protection against C57BL/6 mouse model of LPS-induced acute […] injury assessed as reduction in CD45positive CD11bpositive Ly6Gpositive neutrophils in BALF at 100 mg/kg, po pre-treated with compound for 30 mins followed by LPS-stimulation for 12 hrs and measured 24 hrs post LPS stimulation by flow cytometric analysis. Format: functional, organism-based. As to conditions: time 24.5 hrs.

Calls of active or inactive are those of the source. The rule behind the calls is not given here.

From ChEMBL document CHEMBL5380862, “Unsymmetrical Phosphodiesters as GPR84 Antagonists with High Blood Exposure for the Treatment of Lung Inflammation” (J Med Chem, 2023) come the findings set out here.

G-protein coupled receptor 84, sequence (Q9NQS5 whole entry): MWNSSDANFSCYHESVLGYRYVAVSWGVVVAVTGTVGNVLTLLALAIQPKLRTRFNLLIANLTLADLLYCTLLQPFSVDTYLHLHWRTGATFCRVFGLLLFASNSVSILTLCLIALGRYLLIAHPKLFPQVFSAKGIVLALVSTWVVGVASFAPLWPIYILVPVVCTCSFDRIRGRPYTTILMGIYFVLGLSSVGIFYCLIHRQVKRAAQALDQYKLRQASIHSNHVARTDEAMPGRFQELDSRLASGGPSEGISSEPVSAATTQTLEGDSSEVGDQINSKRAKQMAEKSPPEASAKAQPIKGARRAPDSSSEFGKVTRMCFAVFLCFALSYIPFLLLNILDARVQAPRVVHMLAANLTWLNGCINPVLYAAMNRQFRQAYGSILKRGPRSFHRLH

Usually IC50 stands for the concentration at which inhibition is half-maximal. For `CCOCCOCCOP(=O)(O)OC1=Cc2ccccc2Sc2c(OC)cccc21`, in test [1], the IC50 worked out at 21800 nM. Same read-out and setting: in the case of `COc1cccc2c1Sc1ccccc1C=C2OP(=O)(O)OC1CC1` it was 39500 nM; in that of `CC1(C)[C@@H]2CC[C@@](C)(C2)[C@@H]1OP(=O)(O)OC1=Cc2ccccc2Oc2ccccc21`, 711 nM; in that of `CC/C=C\CCCCOP(=O)(O)OC1=Cc2ccccc2Sc2c(OC)cccc21`, 517 nM. `CCCCCCCCP(=O)(O)OC1=Cc2ccccc2Sc2c(OC)cccc21`: in test [1], the IC50 stood at 219 nM.

On to `COc1cccc2c1Sc1ccccc1C=C2OP(=O)(O)O[C@H]1C[C@@H](C)CC[C@@H]1C(C)C`, for which the IC50 in test [1] came out at 91 nM. Same read-out and setting: in the case of `COc1cccc2c1Sc1ccccc1C=C2OP(=O)(O)OC12CC3CC(C)(CC(C)(C3)C1)C2` it was 126 nM; in that of `CC1(C)[C@@H]2CC[C@@](C)(C2)[C@@H]1OP(=O)(O)O[C@@H]1C(C)(C)[C@@H]2CC[C@@]1(C)C2`, 29600 nM; in that of `CCCCCCCCCOP(=O)(O)OC1=Cc2ccccc2Sc2c(OC)cccc21`, 194 nM.

Regarding `COc1cccc2c1Sc1ccccc1C=C2OP(=O)(O)OC1CCC(C)CC1` (stereo unspecified), in test [1], the IC50 amounted to 4010 nM.

Regarding `COc1cccc2c1Sc1ccccc1C=C2OP(=O)(O)OC1C(C)(C)CCCC1(C)C`, the IC50 in test [1] was 110 nM. With `COc1cccc2c1Sc1ccccc1C=C2OP(=O)(O)OC1CCOC1` (stereo unspecified), the IC50 in test [1] amounted to 3990 nM. On the same count and under the same terms, in the case of `COc1cccc2c1Sc1ccccc1C=C2OP(=O)(O)Oc1ccc2ccccc2c1` it was 609 nM. On the same count and under the same terms, in the case of `COc1cccc2c1Sc1ccccc1C=C2OP(=O)(O)O[C@@H]1C[C@H](C)CC[C@H]1C(C)C` it was 68 nM; in that of `CCCCCCOP(=O)(O)OC1=Cc2ccccc2Sc2c(OC)cccc21`, 325 nM; in that of `COc1cccc2c1Sc1ccccc1C=C2OP(=O)(O)Oc1cc(C)ccc1C(C)C`, 658 nM. The same measure, in the same setting: in the case of `COc1cccc2c1Sc1ccccc1C=C2OP(=O)(O)Oc1cc(C(C)C)ccc1C` it was 196 nM. Turning to `CCOC(=O)[C@H](CS)NC(C)=O`, the result in the test with Mus musculus [2], with Mus musculus [3], in the test with Mus musculus [4], in the test on Mus musculus [5], in the test with Mus musculus [6] and in the test on Mus musculus [7] was Active. The result with Mus musculus [8] was Active. On to `COc1cccc2c1Sc1ccccc1C=C2OP(=O)(O)OC12CC3CC(CC(C3)C1)C2`, for which the IC50 in test [1] stood at 340 nM. On the same count and under the same terms, in the case of `COc1cccc2c1Sc1ccccc1C=C2OP(=O)(O)OC` it was 2830 nM; in that of `CC1(C)[C@@H]2CC[C@@](C)(C2)[C@@H]1OP(=O)(O)OC1=Cc2c(F)cccc2Sc2ccccc21`, 554 nM.

As to `COc1cccc2c1Sc1ccccc1C=C2OP(=O)(O)Oc1cccc2ccccc12`, the IC50 in test [1] was 130 nM.

Turning to `CC1(C)[C@@H]2CC[C@@](C)(C2)[C@@H]1OP(=O)(O)OC1=Cc2ccccc2Sc2c(OC(F)(F)F)cccc21`, in test [1], the half-inhibitory concentration (IC50) amounted to 12 nM. The same measure, in the same setting: in the case of `COc1cccc2c1Sc1ccccc1C=C2OP(=O)(O)OC1CCCCC1C` (stereo unspecified) it was 1730 nM. Same read-out and setting: in the case of `CC1(C)[C@@H]2CC[C@@](C)(C2)[C@@H]1OP(=O)(O)OC1=Cc2ccccc2Sc2ccccc21` it was 166 nM.
